According to patent US20250127903A1, “SUBSTITUTED PIPERIDINE DEGRONIMERS FOR TARGET PROTEIN DEGRADATION” (priority 2016, published 2025):

Biological target: CRBN-DDB1 (Homo sapiens (Human), UniProt Q96SW2)
Assay: CRBN-DDB1 fluorescence polarization (FP) binding assay
Details: Table 2 Degrons; displacement of Thalidomide-Alexa Fluor or Pomalidomide-fluorescein probe
Protocol: Measuring compound ligand binding to CRBN-DDB1 was carried out using an established sensitive and quantitative in vitro fluorescence polarization (FP) based binding assay. […] Compounds were dispensed from serially diluted DMSO stock into black 384-well compatible fluorescence polarization plates using an Echo acoustic dispenser. […] Matching control wells excluding CRBN-DDB1 were used to correct for background fluorescence. Plates were read on an Envision plate reader with appropriate FP filter sets.

Chain of CRBN-DDB1 (Q96SW2 whole entry, looked up): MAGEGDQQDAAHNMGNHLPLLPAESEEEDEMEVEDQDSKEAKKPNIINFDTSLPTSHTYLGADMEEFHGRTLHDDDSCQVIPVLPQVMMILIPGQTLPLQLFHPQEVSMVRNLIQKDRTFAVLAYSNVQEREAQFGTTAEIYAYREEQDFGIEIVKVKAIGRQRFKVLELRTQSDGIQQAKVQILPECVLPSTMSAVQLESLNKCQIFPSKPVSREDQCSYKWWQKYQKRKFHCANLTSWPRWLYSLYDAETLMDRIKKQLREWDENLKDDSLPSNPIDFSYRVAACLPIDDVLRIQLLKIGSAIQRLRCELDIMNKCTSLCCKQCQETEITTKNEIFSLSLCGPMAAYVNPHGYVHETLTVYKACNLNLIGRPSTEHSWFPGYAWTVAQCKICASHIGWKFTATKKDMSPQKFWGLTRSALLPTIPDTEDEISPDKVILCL
Chain of CRBN-DDB1 (Q16531 whole entry partner, looked up): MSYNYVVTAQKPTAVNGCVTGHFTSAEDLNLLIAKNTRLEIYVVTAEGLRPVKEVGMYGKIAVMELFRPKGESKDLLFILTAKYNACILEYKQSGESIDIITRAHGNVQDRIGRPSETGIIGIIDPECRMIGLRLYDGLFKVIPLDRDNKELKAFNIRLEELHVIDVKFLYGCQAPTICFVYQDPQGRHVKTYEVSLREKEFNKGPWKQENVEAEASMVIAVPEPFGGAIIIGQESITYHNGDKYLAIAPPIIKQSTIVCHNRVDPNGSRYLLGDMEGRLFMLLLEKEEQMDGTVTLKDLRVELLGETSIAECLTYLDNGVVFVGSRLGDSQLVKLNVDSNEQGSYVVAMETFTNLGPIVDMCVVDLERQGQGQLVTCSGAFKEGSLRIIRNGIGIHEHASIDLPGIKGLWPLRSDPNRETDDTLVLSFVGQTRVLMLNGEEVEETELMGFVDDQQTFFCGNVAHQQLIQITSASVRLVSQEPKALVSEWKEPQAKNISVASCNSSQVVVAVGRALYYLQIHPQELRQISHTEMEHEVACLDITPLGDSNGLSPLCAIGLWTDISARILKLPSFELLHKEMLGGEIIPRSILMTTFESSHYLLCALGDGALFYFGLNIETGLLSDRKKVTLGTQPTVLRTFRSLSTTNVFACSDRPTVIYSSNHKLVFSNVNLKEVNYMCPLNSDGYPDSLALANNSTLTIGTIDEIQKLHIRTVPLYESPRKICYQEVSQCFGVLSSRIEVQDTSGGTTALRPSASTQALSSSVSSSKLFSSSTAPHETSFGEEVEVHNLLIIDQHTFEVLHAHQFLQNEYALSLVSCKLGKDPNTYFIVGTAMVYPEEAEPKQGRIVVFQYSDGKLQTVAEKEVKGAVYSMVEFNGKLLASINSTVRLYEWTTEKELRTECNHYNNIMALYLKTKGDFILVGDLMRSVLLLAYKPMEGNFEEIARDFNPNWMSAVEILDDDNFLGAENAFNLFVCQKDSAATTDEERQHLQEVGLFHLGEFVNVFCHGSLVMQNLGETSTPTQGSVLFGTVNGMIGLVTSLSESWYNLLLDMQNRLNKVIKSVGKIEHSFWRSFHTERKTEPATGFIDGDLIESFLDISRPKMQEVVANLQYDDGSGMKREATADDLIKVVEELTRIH

Question: With `CC(C)(C)OC(=O)N1CCC(n2cc(CNc3cccc4c3C(=O)N(C3CCC(=O)NC3=O)C4=O)nn2)CC1` (stereo not shown) [Compound 264, tert-Butyl 4-(4-(((2-(2,6-Dioxopiperidin-3-yl)-1,3-dioxoisoindolin-4-yl)amino)methyl)-1H-1,2,3-triazol-1-yl)piperidine-1-carboxylate] as the compound, how does the Kd read?
Answer: < 10 µM
